Laboratory results published in BindingDB's records for doi:10.1016/j.bmc.2011.12.011 (University of Auckland, 2012).

Legend:
Perforin-1 = molecular target: T1, Perforin-1 (Homo sapiens, UniProt P14222); experiment: Inhibition of recombinant perforin-mediated lysis of Jurkat cells assessed as [51Cr] release preincubated with perforin for 30 mins followed by incubation with [51Cr]-labeled Jurkat cells by gamma counting
T1 sequence (P14222 whole entry): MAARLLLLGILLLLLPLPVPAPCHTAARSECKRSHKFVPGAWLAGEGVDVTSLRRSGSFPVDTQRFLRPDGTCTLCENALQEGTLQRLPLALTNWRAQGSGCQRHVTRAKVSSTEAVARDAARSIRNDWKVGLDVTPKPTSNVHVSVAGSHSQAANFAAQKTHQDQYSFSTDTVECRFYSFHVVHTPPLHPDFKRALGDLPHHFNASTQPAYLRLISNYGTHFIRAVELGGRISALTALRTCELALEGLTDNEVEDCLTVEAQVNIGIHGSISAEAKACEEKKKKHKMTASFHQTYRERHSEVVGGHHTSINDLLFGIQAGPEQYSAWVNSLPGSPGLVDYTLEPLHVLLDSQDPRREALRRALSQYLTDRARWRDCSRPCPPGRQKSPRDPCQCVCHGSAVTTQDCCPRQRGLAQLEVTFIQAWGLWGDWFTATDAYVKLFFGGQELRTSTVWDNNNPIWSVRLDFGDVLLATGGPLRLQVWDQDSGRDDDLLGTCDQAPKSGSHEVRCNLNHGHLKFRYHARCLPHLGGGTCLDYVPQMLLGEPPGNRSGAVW

[1] = Inhibition of recombinant perforin-mediated lysis of Jurkat cells assessed as [51Cr] release preincubated with perforin for 30 mins followed by incubation with [51Cr]-labeled Jurkat cells by gamma counting

Compound	IC50 (Perforin-1) [nM]	IC50 [1] [nM]
O=C(NCC=Cc1[nH]c(=S)[nH]c1O)c1ccc2c(c1)COC2=O	> 20000	
CN1C(=O)C(=Cc2ccc(-c3ccc4c(c3)COC4=O)s2)C(=O)N(C)C1=O		3960
O=C1OCc2cc(-c3cccs3)ccc21		> 20000
O=C1NC(=S)NC1=Cc1cc2cc(-c3ccc4c(c3)COC4=O)ccc2[nH]1		820
O=C(O)Cc1ccc(-c2ccc3c(c2)COC3=O)s1		> 20000
CC(=O)c1ccc(-c2ccc3c(c2)COC3=O)s1		> 20000
O=C1OCc2cc(-c3ccc(-c4cnco4)s3)ccc21		3180
O=Cc1ccc(-c2ccc3c(c2)COC3=O)s1		6310
COC(=O)Cc1ccc(-c2ccc3c(c2)COC3=O)s1		> 20000
O=C1NC(=O)C(=Cc2ccc(-c3ccc4c(c3)COC4=O)s2)S1		1120
O=C1NC(=S)NC1=Cc1ccc(-c2ccc3c(c2)COC3=O)s1		780
O=C1NC(=S)NC(=O)C1=Cc1ccc(-c2ccc3c(c2)COC3=O)s1		400
O=C1NC(=S)NC1=Cc1nc(-c2ccc3c(c2)COC3=O)cs1		1410
O=C1NC(=S)NC1=Cc1csc(-c2ccc3c(c2)COC3=O)n1		340
O=C1NC(=S)NC1=Cc1cc(-c2ccc3c(c2)COC3=O)ns1		1440
O=C1NC(=S)NC1=Cc1cc2cc(-c3ccc4c(c3)COC4=O)ccc2o1		510
O=C1NCCCC1=Cc1ccc(-c2ccc3c(c2)COC3=O)s1		15200
O=C1NC(=S)NC1=Cc1ccc(-c2ccc3c(c2)COC3=O)nc1		2000
O=C1NC(=S)NC1=Cc1ccc2cc(-c3ccc4c(c3)COC4=O)ccc2n1		470
O=C1NC(=S)SC1=Cc1ccc(-c2ccc3c(c2)COC3=O)s1		> 10000
O=C1NC(=S)NC1=Cc1ccc(-c2ccc3c(c2)COC3=O)[nH]1		2450
O=C1NC(=O)C(=Cc2ccc(-c3ccc4c(c3)COC4=O)s2)C(=O)N1		800
